Measured values from patent US5219884A, “Immunosuppressant” (Taito Co., Ltd., priority 1990, dated 1993).

Test system: IL2-dependent mouse cell line CTLL-2
Test: suppression of IL-2 induced 3H-thymidine incorporation of CTLL-2
Format: cell-based
Settings: 72 hrs, second run (control 30168 cpm); for inhibition at 0.1 µg/mL / inhibition at 1 µg/mL: Mus musculus, CTLL-2; for inhibition at 0.1 µg/mL: read-out: Suppression
Procedure: IL2-dependent mouse cell line CTLL-2 cells were suspended in the RPMI1640 culture medium supplemented with 30% FCS to a concentration of 2×10^5 cells/ml. The suspension (50 μl) and 50 μl of concanavalin A-stimulated rat spleen cell culture supernatants containing IL2 were added to each well of 96-well microculture plates in which 100 μl of the test substance had been placed. After culturing at 37° C. in an atmosphere of 5% carbon dioxide for 20, 44, or 68 hours, 0.5 μCi/well of ^3 H-thymidine was added, and cultured for 4 hours under the same conditions. After termination of the culture, the cells were harvested by a cell harvester, and the radioactivity incorporated into the cells was measured by a liquid scintillation counter.

Work on `CCCCCCC(=O)CCCCCCCCCC1OC(=O)C(N)(CO)C1O` (stereo not shown) [Example 7] yielded a 3H-thymidine uptake (0.1 μg/ml) of 37960 cpm, a 3H-thymidine uptake (1 μg/ml) of 2088 cpm and an inhibition at 0.1 µg/mL (0.1 μg/ml) of 0%. It also gave an inhibition at 1 µg/mL (1 μg/ml) of 93.3%.
Work on `CCCCCCC(O)CCCCCCCCCC(O)C(O)C(N)(CO)C(=O)O` (stereo not shown) [Example 9] yielded a 3H-thymidine uptake (0.1 μg/ml) of 33835 cpm, a 3H-thymidine uptake (1 μg/ml) of 2247 cpm and an inhibition at 0.1 µg/mL (0.1 μg/ml) of 0%. For the same molecule, the inhibition at 1 µg/mL (1 μg/ml) was 92.7%.
For `CCCCCCC(O)CCCCCCCCCC1OC(=O)C(N)(CO)C1O` (stereo not shown) [Example 10], the 3H-thymidine uptake (0.1 μg/ml) was 28083 cpm, the 3H-thymidine uptake (1 μg/ml) was 1844 cpm and the inhibition at 0.1 µg/mL (0.1 μg/ml) was 6.9%. The inhibition at 1 µg/mL (1 μg/ml) was 94.1%.
`CCCCCCC(=O)CCCCCC/C=C/CC1OC(=O)C(CO)(NC(C)=O)C1O` (stereo not shown) [Example 11] was tested, and the 3H-thymidine uptake (0.1 μg/ml) was 33948 cpm, the 3H-thymidine uptake (1 μg/ml) was 4876 cpm and the inhibition at 0.1 µg/mL (0.1 μg/ml) was 0%. The inhibition at 1 µg/mL (1 μg/ml) was 84%.
